Drawing on patent US10669272B2, “Substituted naphthyridinone compounds useful as T cell activators” (BRISTOL-MYERS SQUIBB COMPANY, priority 2018, dated 2020), this text covers IC50 and EC50 for 25 compounds.

The IC50 is the point on the concentration scale where inhibition reaches its midpoint. As a reminder, the EC50 is the concentration at which the effect is half-maximal.

One assay concerns the target T1, human DGKα (Homo sapiens, UniProt P23743).
T1 construct: TVMV protease cleavage site (C); Hexa-His (C); made in house; host or cells: Sf9 insect cells (baculovirus, Bac-to-Bac)
As to the kind of experiment: DGKα LIPGLO assay (extruded liposome substrate), in vitro DGK inhibition. In kind it is biochemical. The following applies: read-out: DGKa LIPGLO IC50.

A further assay addresses T2, human DGKζ (Homo sapiens, UniProt Q13574).
T2 construct: TVMV protease cleavage site (C); Hexa-His (C); made in house; host or cells: Sf9 insect cells (baculovirus, Bac-to-Bac)
As to the kind of experiment: DGKζ LIPGLO assay (extruded liposome substrate), in vitro DGK inhibition. Format: biochemical. The note with it: read-out: DGKz LIPGLO IC50.

Another assay concerns Human venous whole blood. In words: Human whole blood IFN-γ assay.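 Also: blood from healthy donors exposed to compound for 1 h before stimulation with anti-CD3 and anti-CD28 at 1 µg/mL each, IFN-γ quantified in supernatant by AlphaLISA.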 In kind it is cell-based. The note with it: human whole blood, read-out: INFg Whole Blood Normalized Agonist EC50.
[1] abbreviates: normalized to 3 μM reference compound with anti-CD3 plus anti-CD28 as 100% activation.
The mark [2] stands for this setting: Homo sapiens, 24 h, normalized to 3 μM reference compound with anti-CD3 plus anti-CD28 as 100% activation.
Where [3] appears, read: Homo sapiens, 24 h, anti-CD3 plus anti-CD28, 24 hours, 3 μM reference compound = 100% activation.
The mark [4] stands for this setting: anti-CD3 plus anti-CD28, 24 hours, 3 μM reference compound = 100% activation.

SMILES strings stand for the structures. Like-named read-outs stand apart in the source and are kept apart here.

T2 sequence (Q13574 with tags, fused parts or gaps isoform Q13574-4): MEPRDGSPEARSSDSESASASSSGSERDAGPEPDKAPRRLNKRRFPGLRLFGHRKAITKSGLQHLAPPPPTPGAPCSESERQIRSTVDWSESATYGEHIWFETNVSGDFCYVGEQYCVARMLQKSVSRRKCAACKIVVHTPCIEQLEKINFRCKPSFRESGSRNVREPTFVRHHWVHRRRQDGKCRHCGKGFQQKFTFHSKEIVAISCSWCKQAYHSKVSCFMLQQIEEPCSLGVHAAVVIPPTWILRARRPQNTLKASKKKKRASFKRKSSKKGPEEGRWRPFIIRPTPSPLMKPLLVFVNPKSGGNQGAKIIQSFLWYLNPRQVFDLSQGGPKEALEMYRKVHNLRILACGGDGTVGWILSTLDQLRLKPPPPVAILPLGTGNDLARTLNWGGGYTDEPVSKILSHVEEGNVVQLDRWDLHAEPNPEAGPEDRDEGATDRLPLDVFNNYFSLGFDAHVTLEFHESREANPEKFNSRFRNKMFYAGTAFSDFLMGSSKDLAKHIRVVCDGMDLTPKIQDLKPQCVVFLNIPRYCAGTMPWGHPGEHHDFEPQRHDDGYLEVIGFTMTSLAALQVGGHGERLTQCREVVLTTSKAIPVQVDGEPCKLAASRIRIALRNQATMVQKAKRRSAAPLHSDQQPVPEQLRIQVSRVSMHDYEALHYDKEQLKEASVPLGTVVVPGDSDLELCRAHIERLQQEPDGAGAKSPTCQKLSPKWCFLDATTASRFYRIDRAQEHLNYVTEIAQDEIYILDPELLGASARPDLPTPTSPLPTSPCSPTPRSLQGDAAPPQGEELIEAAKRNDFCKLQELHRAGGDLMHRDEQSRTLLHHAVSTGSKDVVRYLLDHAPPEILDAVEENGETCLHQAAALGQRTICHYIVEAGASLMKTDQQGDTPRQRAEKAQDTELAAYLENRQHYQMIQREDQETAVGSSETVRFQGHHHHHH
T1 sequence (P23743 with tags, fused parts or gaps): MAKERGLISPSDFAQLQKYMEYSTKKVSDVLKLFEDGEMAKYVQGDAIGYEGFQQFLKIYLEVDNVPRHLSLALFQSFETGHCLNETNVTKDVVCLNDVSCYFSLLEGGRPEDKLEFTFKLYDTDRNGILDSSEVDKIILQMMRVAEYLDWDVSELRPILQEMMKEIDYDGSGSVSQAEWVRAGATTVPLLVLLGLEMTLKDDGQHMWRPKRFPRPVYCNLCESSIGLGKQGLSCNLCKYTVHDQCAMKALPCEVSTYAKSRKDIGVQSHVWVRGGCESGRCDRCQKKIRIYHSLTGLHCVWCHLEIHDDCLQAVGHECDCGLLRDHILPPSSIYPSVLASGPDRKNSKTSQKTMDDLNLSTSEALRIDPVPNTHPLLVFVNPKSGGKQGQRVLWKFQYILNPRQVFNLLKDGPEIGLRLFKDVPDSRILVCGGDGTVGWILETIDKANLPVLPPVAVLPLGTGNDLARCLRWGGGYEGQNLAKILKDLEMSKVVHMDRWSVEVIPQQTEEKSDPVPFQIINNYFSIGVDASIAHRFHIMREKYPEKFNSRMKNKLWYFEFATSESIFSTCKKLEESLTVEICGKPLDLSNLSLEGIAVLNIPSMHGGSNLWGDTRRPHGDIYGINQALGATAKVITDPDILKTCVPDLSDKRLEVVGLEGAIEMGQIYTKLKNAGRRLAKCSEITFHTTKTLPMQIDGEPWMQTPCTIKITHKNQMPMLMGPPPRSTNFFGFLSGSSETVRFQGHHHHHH
Description for Human venous whole blood: Human Whole Blood IFN-γ Assay
Human venous whole blood (22.5 μL per well), obtained from healthy donors, was pre-treated with compounds for one hour at 37° C. in a humidified 95% air/5% CO2 incubator. The blood was stimulated with 2.5 μL anti-human CD3 and anti-CD28 mAb at a final concentration of 1 μg/mL each for 24 hours at 37° C. IFN-γ in the supernatants was measured using AlphLISA kit (Cat # AL217).

Turning to `C[C@@H]1CN(c2c(F)c(=O)n(C)c3ccc(C#N)nc23)[C@@H](C)CN1C(c1ccc(F)cc1)c1cccc(F)c1` (single isomer, unassigned) [Example 331], the IC50 at human DGKα (liposome (LIPGLO) assay) was determined as 1.7 µM; at human DGKζ (liposome (LIPGLO) assay), 1.9 µM. Besides, in the assay on Human venous whole blood (setting [1]), the concentration giving a half-maximal response (EC50) was determined as 20 µM.
Consider `C[C@@H]1CN(c2cc(=O)n(C)c3ccc(C#N)nc23)[C@@H](C)CN1C(c1ccc(F)cc1)c1cncc(F)c1` (single isomer, unassigned) [Example 415], for which the results for the IC50 at human DGKα (liposome (LIPGLO) assay) and on human DGKζ (liposome (LIPGLO) assay) were 35 µM and 19 µM, respectively. In the assay with Human venous whole blood (setting [2]), the EC50 came out at 16 µM.
For `COC(=O)C1CN(c2cc(=O)n(C)c3ccc(C#N)nc23)CCN1C(c1ccc(Cl)cc1)c1ccc(Cl)cc1` (single isomer, unassigned) [Example 96, methyl 1-(bis(4-chlorophenyl)methyl)-4-(6-cyano-1-methyl-2-oxo-1,2-dihydro-1,5-naphthyridin-4-yl)piperazine-2-carboxylate], the IC50 at human DGKα (liposome (LIPGLO) assay) came to 240 µM; on human DGKζ (liposome (LIPGLO) assay), 14 µM. In the assay on Human venous whole blood (setting [1]), the EC50 turned out to be 13 µM.
`C[C@@H]1CN(c2cc(=O)n(C)c3ccc(C#N)nc23)[C@@H](C)CN1C(COC(F)F)c1ccc(F)cc1` (single isomer, unassigned) [Example 1189]: the IC50 on human DGKα (liposome (LIPGLO) assay) is 0.81 µM; at human DGKζ (liposome (LIPGLO) assay), 2.6 µM. Also, the half-maximal effective concentration (EC50) in the assay with Human venous whole blood (setting [2]) worked out at 1.2 µM.
Take `Cc1cccc(CN2CCN(c3c(C#N)c(=O)n(C)c4ccc(C#N)nc34)C[C@H]2C)n1` [Example 988]: the IC50 stood at 2.8 µM on human DGKα (DGKα liposome (LIPGLO) assay) and 5.3 µM on human DGKζ (DGKζ liposome (LIPGLO) assay). Also, the half-maximal effective concentration (EC50) in the assay with Human venous whole blood (setting [3]) came to 20 µM.
For `CC(c1ccc(C(F)(F)F)cc1)N1C[C@@H](C)N(c2cc(=O)n(C)c3ccc(C#N)nc23)C[C@@H]1C` (single isomer, unassigned) [Example 345], the values for the IC50 on human DGKα (liposome (LIPGLO) assay) and at human DGKζ (liposome (LIPGLO) assay) were 4 µM and 33 µM, respectively. The EC50 in the assay with Human venous whole blood (setting [1]) was 6.8 µM.
With `C[C@@H]1CN(c2cc(=O)n(C)c3ccc(C#N)nc23)[C@@H](C)CN1C(c1ccccn1)c1ccc(F)cc1F` (single isomer, unassigned) [Example 683], the IC50 at human DGKα (liposome (LIPGLO) assay) worked out at 0.47 µM; on human DGKζ (liposome (LIPGLO) assay), 23 µM. Also, in the assay with Human venous whole blood (setting [1]), the EC50 came to 1.5 µM.
On to `C[C@@H]1CN(c2cc(=O)n(C)c3ccc(C#N)nc23)[C@@H](C)CN1Cc1ccc(F)c(OC(F)(F)F)c1` [Example 585], for which the values for the IC50 on human DGKα (liposome (LIPGLO) assay) and at human DGKζ (liposome (LIPGLO) assay) were 9.3 µM and 1.5 µM, respectively. In addition, the EC50 in the assay on Human venous whole blood (setting [2]) amounted to 2.1 µM.
Turning to `Cc1ccc(C(c2ccc(F)cc2)N2C[C@H](C)N(c3c(C#N)c(=O)n(C)c4ccc(C#N)nc34)C[C@H]2C)cc1` (stereo partly drawn) [Example 817], the IC50 at human DGKα (DGKα liposome (LIPGLO) assay) came out at 22 µM; on human DGKζ (DGKζ liposome (LIPGLO) assay) it was 8.6 µM. The EC50 in the assay with Human venous whole blood (setting [4]) stood at 1.1 µM.
As to `C[C@@H]1CN(c2cc(=O)n(C)c3ccc(C#N)nc23)[C@@H](C)CN1C(c1ccc(F)cc1)C1CCOCC1` (single isomer, unassigned) [Example 387], the results for the IC50 at human DGKα (liposome (LIPGLO) assay) and on human DGKζ (liposome (LIPGLO) assay) were 1.5 µM and 3.1 µM, respectively. Besides, in the assay with Human venous whole blood (setting [2]), the EC50 worked out at 3.6 µM.
Regarding `C[C@@H]1CN(c2cc(=O)n(C)c3ccc(C#N)nc23)[C@@H](C)CN1Cc1ccc(OC(F)(F)F)c(F)c1` [Example 610], the concentration for half-maximal inhibition (IC50) at human DGKα (liposome (LIPGLO) assay) is 0.69 µM; on human DGKζ (liposome (LIPGLO) assay), 13 µM. For the same compound, the EC50 with Human venous whole blood (setting [2]) turned out to be 1.8 µM.
As to `COC(=O)c1cccc(C(C)N2C[C@H](C)N(c3c(C#N)c(=O)n(C)c4ccc(C#N)nc34)C[C@H]2C)c1` (single isomer, unassigned) [Example 796], the IC50 on human DGKα (DGKα liposome (LIPGLO) assay) was 240 µM; on human DGKζ (DGKζ liposome (LIPGLO) assay), 2.2 µM. The half-maximal effective concentration (EC50) in the assay on Human venous whole blood (setting [4]) was determined as 20 µM.
On to `CC[C@H]1CN(C(c2ccc(F)cc2)c2cccc(C(F)(F)F)n2)[C@H](C)CN1c1cc(=O)n(C)c2ccc(C#N)nc12` (single isomer, unassigned) [Example 1134], for which the IC50 on human DGKα (liposome (LIPGLO) assay) was 0.36 µM; on human DGKζ (liposome (LIPGLO) assay) it was 0.13 µM. In addition, the EC50 with Human venous whole blood (setting [1]) amounted to 0.34 µM.
Regarding `Cc1cc(CN2CCN(c3c(C#N)c(=O)n(C)c4ccc(C#N)nc34)C[C@H]2C)ccc1F` [Example 995], the IC50 on human DGKα (DGKα liposome (LIPGLO) assay) was 3.2 µM; at human DGKζ (DGKζ liposome (LIPGLO) assay), 5.6 µM. In addition, the EC50 with Human venous whole blood (setting [3]) was determined as 2.5 µM.
As for `C[C@@H]1CN(c2cc(=O)n(C)c3ccc(C#N)nc23)[C@@H](C)CN1C(c1ccc(F)cc1)c1ccc(C(F)(F)F)cn1` (single isomer, unassigned) [Example 681], the IC50 on human DGKα (liposome (LIPGLO) assay) is 0.1 µM; at human DGKζ (liposome (LIPGLO) assay), 0.35 µM. Also, the EC50 in the assay on Human venous whole blood (setting [1]) came to 0.27 µM.
In the same order, the values of `Cc1ccc(C(c2cncc(F)c2)N2C[C@H](C)N(c3cc(=O)n(C)c4ccc(C#N)nc34)C[C@H]2C)cc1` (single isomer, unassigned) [Example 416] are 21 µM, 14 µM and 5.2 µM.
Take `C[C@@H]1CN(c2c(C#N)c(=O)n(C)c3ccc(C#N)nc23)CCN1C(c1ccc(F)cc1)c1ccnc(C(C)(C)C)n1` (stereo partly drawn) [Example 321, 8-((3R)-4-((2-(tert-butyl)pyrimidin-4-yl)(4-fluorophenyl)methyl)-3-methylpiperazin-1-yl)-5-methyl-6-oxo-5,6-dihydro-1,5-naphthyridine-2,7-dicarbonitrile]: the IC50 at human DGKα (liposome (LIPGLO) assay) was 4.3 µM; on human DGKζ (liposome (LIPGLO) assay) it was 0.24 µM. Also, in the assay on Human venous whole blood (setting [2]), the half-maximal effective concentration (EC50) turned out to be 0.95 µM.
On to `C[C@@H]1CN(c2c(C#N)c(=O)n(C)c3ccc(C#N)nc23)CCN1C(c1ccc(Cl)cc1)c1ccc2c(c1)OC(F)(F)O2` (single isomer, unassigned) [Example 941], for which the results for the IC50 at human DGKα (DGKα liposome (LIPGLO) assay) and on human DGKζ (DGKζ liposome (LIPGLO) assay) were 4.3 µM and 20 µM, respectively. Further, the EC50 in the assay on Human venous whole blood (setting [3]) stood at 20 µM.
For `COc1ccc(C(C)N2C[C@H](C)N(c3cc(=O)n(C)c4ccc(C#N)nc34)C[C@H]2C)cc1OCCN1CCOCC1` (stereo partly drawn) [Example 1305], the IC50 at human DGKα (liposome (LIPGLO) assay) was determined as 130 µM; at human DGKζ (liposome (LIPGLO) assay), 7.5 µM. Moreover, the EC50 with Human venous whole blood (setting [2]) is 20 µM.
With `COCC(F)(F)C(c1ccc(F)cc1)N1C[C@H](C)N(c2cc(=O)n(C)c3ccc(C#N)nc23)C[C@H]1C` (single isomer, unassigned) [Example 1313], the IC50 stood at 2.2 µM at human DGKα (liposome (LIPGLO) assay) and 5.3 µM at human DGKζ (liposome (LIPGLO) assay). Moreover, in the assay on Human venous whole blood (setting [2]), the EC50 came out at 4.8 µM.
For `C[C@@H]1CN(c2cc(=O)n(C)c3ccc(C#N)nc23)[C@@H](C)CN1C(c1ccc(F)cc1)c1ncco1` (stereo partly drawn) [Example 717], the values for the IC50 at human DGKα (liposome (LIPGLO) assay) and on human DGKζ (liposome (LIPGLO) assay) were 0.22 µM and 8.1 µM, respectively. Further, in the assay with Human venous whole blood (setting [2]), the half-maximal effective concentration (EC50) was determined as 1.6 µM.
Take `Cc1cccc(C(C)N2CCN(c3c(C#N)c(=O)n(C)c4ccc(C#N)nc34)C[C@H]2C)n1` (stereo partly drawn) [Example 967]: the figures for the IC50 at human DGKα (DGKα liposome (LIPGLO) assay) and at human DGKζ (DGKζ liposome (LIPGLO) assay) were 2.8 µM and 51 µM, respectively. Further, the EC50 in the assay with Human venous whole blood (setting [4]) came to 18 µM.
In the same order, the values of `Cc1cc(C(C)N2C[C@H](C)N(c3c(C#N)c(=O)n(C)c4ccc(C#N)nc34)C[C@H]2C)no1` (single isomer, unassigned) [Example 804] are 6.9 µM, 32 µM and 20 µM.
Turning to `C[C@@H]1CN(c2cc(=O)n(C)c3ccc(C#N)nc23)[C@@H](C)CN1C1(c2ccc(F)cc2)CC1` [Example 1454, 8-((2S,5R)-4-(1-(4-fluorophenyl)cyclopropyl)-2,5-dimethylpiperazin-1-yl)-5-methyl-6-oxo-5,6-dihydro-1,5-naphthyridine-2-carbonitrile], the IC50 on human DGKα (liposome (LIPGLO) assay) came out at 1.6 µM; on human DGKζ (liposome (LIPGLO) assay), 45 µM. The EC50 in the assay with Human venous whole blood (setting [2]) was 10 µM.
On to `CC[C@H]1CN(C(C)c2ccc(C3CC3)cc2)[C@H](CC)CN1c1cc(=O)n(C)c2ccc(C#N)nc12` (single isomer, unassigned) [Example 1355], for which the figures for the concentration for half-maximal inhibition (IC50) on human DGKα (liposome (LIPGLO) assay) and at human DGKζ (liposome (LIPGLO) assay) were 0.062 µM and 0.033 µM, respectively. The EC50 with Human venous whole blood (setting [1]) came out at 0.028 µM.
